Measured values from patent US20250084058A1, “PHENYLPYRAZOLE COMPOUND AND APPLICATION THEREOF” (priority 2022, published 2025).
Read-outs that look alike come from different tables or passages of the source.

Columns and labels:
Format in all cases: in vivo
Plutella xylostella = assay: Activity determination of killing Plutella xylostella (Airbrush spray, cabbage leaf discs); conditions: foliar, 3rd day after administration; for mortality at 0.3125 µg/mL: 0.3125 mg/L, read-out: Mortality (%, on 3rd day after administration) 0.3125 mg/L; for mortality at 0.625 µg/mL: 0.625 mg/L, read-out: Mortality (%, on 3rd day after administration) 0.625 mg/L
Protocol: (§1) The compounds to be tested were dissolved in a mixed solvent of acetone/methanol (1:1) and then diluted to desired concentrations with water containing 0.1% (wt) Tween 80.
(§2) With Mythimna separata and Plutella xylostella as targets, the activity was determined by Airbrush spray method.
Determination method: Cabbage leaves were punched into leaf discs with the diameter of 2 cm by a puncher, the pressure of Airbrush spray treatment is 10 psi (about 0.7 kg/cm^2), and the compounds to be tested were sprayed onto the front and back surfaces of each leaf disc at a liquid amount of 0.5 mL. After drying in the shade, 10 3rd instar larvae were inoculated to each treatment, and each treatment was repeated for 3 times. After the treatment, the larvae were placed in an observation room for culture at 25° C. with relative humidity of 60-70%. On 3rd day after administration, the number of surviving larvae was investigated, and the mortality was calculated.
Some compounds of the present disclosure and control compounds were selected to carry out parallel comparative experiments of the insecticidal activity against Plutella xylostella (on 3rd day after administration), and the determination method was the same as above.

Mythimna separata = assay: Activity determination of killing Mythimna separata (Airbrush spray, corn leaf segments); conditions: foliar, dose 1.25 mg/L, 3rd instar larvae, 3rd day after administration, read-out: mortality against Mythimna separata
Protocol: as §1, §2
Determination method: Corn leaves were cut into leaf segments with the length of 2 cm, the pressure of Airbrush spray treatment is 10 psi (about 0.7 kg/cm^2), and the compounds to be tested were sprayed onto the front and back surfaces of each leaf segment at a liquid amount of 0.5 mL. After drying in the shade, 10 3rd instar larvae were inoculated to each treatment, and each treatment was repeated for 3 times. After the treatment, the larvae were placed in an observation room for culture at 25° C. with relative humidity of 60-70%. On the 3rd day after administration, the number of surviving larvae was investigated, and the mortality was calculated.

Ctenocephalides felis = assay: Insecticidal test on Ctenocephalides felis (compound film in culture dish); conditions: 1 μg/cm^2; adult Ctenocephalides felis; after 72 h; 25° C.; read-out: insect mortality (Ctenocephalides felis)
Protocol: 4 mg of compounds to be tested were dissolved in 40 mL of acetone to obtain acetone solutions with a concentration of 100 mg/L. Bottom surfaces and side surfaces of culture dishes with an inner diameter of 5.3 cm were coated with 400 μL of the drug solutions, and when the acetone was volatilized, films of the compounds of the present disclosure were prepared on inner walls of the culture dishes. The inner walls of the culture dishes used were 40 cm^2, and a dose of the treatment drugs was 1 μg/cm^2. 10 adult Ctenocephalides felis (males and females were mixed) were placed in the culture dishes, and the culture dishes were covered and then stored in a constant-temperature room at 25° C. The number of dead insects was checked after 72 h, and the insect mortality was calculated. The test was repeated for 3 times. Test results: The insect mortality of compounds 1, 2, 3, 4, 5, 11, 12, 18, 32, 33, 34, 46, 60, 74, 88, 99, 101, 102, 104, 105, 108, 109, 110, 111, 113 and 114 is 70% or above.

Tetranychus cinnabarinus = assay: Greenhouse acaricidal activity on adult acarids of Tetranychus cinnabarinus (spraying of Phaseolus vulgaris seedlings); conditions: dose 1.25 mg/L, after 72 h, read-out: mortality against adult acarids of Tetranychus cinnabarinus
Protocol: According to the solubility of the compounds to be tested, the compounds to be tested were dissolved in acetone or dimethyl sulfoxide and prepared into 50 mL of solutions to be tested at desired concentrations with a 0.1% Tween 80 solution, where the content of the acetone or dimethyl sulfoxide in the solutions was not higher than 10%.
Two true leaves of Phaseolus vulgaris seedlings were taken, and 30-40 adult acarids of Tetranychus cinnabarinus were inoculated. After the cardinal number was investigated, the whole plants were subjected to spraying treatment with a hand-held sprayer, each treatment was repeated for 3 times, and the plants were placed in a standard observation room after the treatment. The number of surviving acarids was investigated after 72 h, and the mortality was calculated.

Dermacentor variabilis = assay: Insecticidal test on Dermacentor variabilis (compound film in culture dish); conditions: 1 μg/cm^2, 1st nymphs, after 24 h, 25° C., read-out: insect mortality (Dermacentor variabilis)
Protocol: 4 mg of compounds to be tested were dissolved in 40 mL of acetone to obtain acetone solutions with a concentration of 100 mg/L. Bottom surfaces and side surfaces of 2 culture dishes with an inner diameter of 5.3 cm were coated with 400 μL of the drug solutions, and when the acetone was volatilized, films of the compounds of the present disclosure were prepared on inner walls of the culture dishes. The inner walls of the culture dishes used were 40 cm^2, and a dose of the treatment drugs was 1 μg/cm^2. 10 1st nymphs of Dermacentor variabilis (males and females were mixed) were placed in the culture dishes. The 2 culture dishes were combined, sealed with tape at a junction portion to prevent escape of the nymphs, and then stored in a constant-temperature room at 25° C. The number of dead insects was checked after 24 h, and the insect mortality was calculated. The test was repeated for 3 times. Test results: The insect mortality of compounds 1, 2, 3, 4, 5, 11, 12, 18, 32, 33, 34, 46, 60, 74, 88, 99, 101, 102, 104, 105, 108, 109, 110, 111, 113 and 114 is 70% or above.

[1] = dose 1.25 mg/L, 3rd instar larvae, read-out: mortality against Plutella xylostella
[2] = parallel comparative experiment
[3] = 1.25 mg/L, parallel comparative experiment, read-out: Mortality (%, on 3rd day after administration) 1.25 mg/L

SMILES	mortality at 1.25 µg/mL (Plutella xylostella; [1])	mortality at 1.25 µg/mL (Mythimna separata)	mortality at 1 µg/cm2 (Ctenocephalides felis)	mortality at 1.25 µg/mL (Tetranychus cinnabarinus)	mortality at 1 µg/cm2 (Dermacentor variabilis)	mortality at 0.3125 µg/mL (Plutella xylostella; [2])	mortality at 0.625 µg/mL (Plutella xylostella; [2])	mortality at 1.25 µg/mL (Plutella xylostella; [3])
N#CCN(C(=O)c1cc(-c2cnn(-c3c(Br)cc(C(F)(C(F)(F)F)C(F)(F)F)cc3C(F)(F)F)c2)cnc1Cl)C1CC1 [Compound 46]	≥ 90%	≥ 90%	≥ 70%	≥ 90%	≥ 70%	–	–	–
N#CC1(N(C(=O)c2cc(-c3cnn(-c4c(Cl)cc(C(F)(C(F)(F)F)C(F)(F)F)cc4Cl)c3)cnc2Cl)C(=O)C2CC2)CC1 [Compound 113]	≥ 90%	≥ 90%	≥ 70%	≥ 90%	≥ 70%	100%	100%	100%
CC(C)C(=O)N(C(=O)c1cc(-c2cnn(-c3c(Cl)cc(C(F)(C(F)(F)F)C(F)(F)F)cc3Cl)c2)cnc1Cl)C1CC1 [Compound 102]	≥ 90%	≥ 90%	≥ 70%	≥ 90%	≥ 70%	–	–	–
CCC(=O)N(C(=O)c1cc(-c2cnn(-c3c(Cl)cc(C(F)(C(F)(F)F)C(F)(F)F)cc3Cl)c2)cnc1Cl)C1(C#N)CC1 [Compound 109]	≥ 90%	≥ 90%	≥ 70%	≥ 90%	≥ 70%	–	–	–
N#CCCN(C(=O)c1cc(-c2cnn(-c3c(Cl)cc(C(F)(C(F)(F)F)C(F)(F)F)cc3Br)c2)cnc1Cl)C1CC1 [Compound 33]	≥ 90%	≥ 90%	≥ 70%	≥ 90%	≥ 70%	–	–	–
N#CCN(C(=O)c1cc(-c2cnn(-c3c(Br)cc(C(F)(C(F)(F)F)C(F)(F)F)cc3OC(F)(F)F)c2)cnc1Cl)C1CC1 [Compound 74]	≥ 90%	≥ 90%	≥ 70%	≥ 90%	≥ 70%	–	–	–
CC(=O)N(C(=O)c1cc(-c2cnn(-c3c(Cl)cc(C(F)(C(F)(F)F)C(F)(F)F)cc3Cl)c2)cnc1Cl)C1CC1 [Compound 99]	≥ 90%	≥ 90%	≥ 70%	≥ 90%	≥ 70%	100%	100%	100%
CC(=O)N(C(=O)c1cc(-c2cnn(-c3c(Cl)cc(C(F)(C(F)(F)F)C(F)(F)F)cc3Cl)c2)cnc1Cl)C1(C#N)CC1 [Compound 108]	≥ 90%	≥ 90%	≥ 70%	≥ 90%	≥ 70%	100%	100%	100%
N#CCN(C(=O)c1cc(-c2cnn(-c3c(Cl)cc(C(F)(C(F)(F)F)C(F)(F)F)cc3OC(F)(F)F)c2)cnc1Cl)C1CC1 [Compound 88]	≥ 90%	≥ 90%	≥ 70%	≥ 90%	≥ 70%	–	–	–
N#CCCN(C(=O)c1cc(-c2cnn(-c3c(Cl)cc(C(F)(C(F)(F)F)C(F)(F)F)cc3Cl)c2)cnc1Cl)C1CC1 [Compound 5]	≥ 90%	≥ 90%	≥ 70%	≥ 90%	≥ 70%	100%	100%	100%
COCC(=O)N(C(=O)c1cc(-c2cnn(-c3c(Cl)cc(C(F)(C(F)(F)F)C(F)(F)F)cc3Cl)c2)cnc1Cl)C1(C#N)CC1 [Compound 114]	≥ 90%	≥ 90%	≥ 70%	≥ 90%	≥ 70%	100%	100%	100%
N#CCCN(C(=O)c1cc(-c2cnn(-c3c(Cl)cc(C(F)(C(F)(F)F)C(F)(F)F)cc3Cl)c2)cnc1Cl)C1(C#N)CC1 [Compound 12]	≥ 90%	≥ 90%	≥ 70%	≥ 90%	≥ 70%	100%	100%	100%
